Values after ≈ are worked out from the molar mass of the structure shown. Active and inactive are the calls of the source. No cut-off for these calls is given here.
Key:
Neutrophil elastase = target: T1, Neutrophil elastase (Homo sapiens, UniProt P08246); assay: In vitro inhibition of human leukocyte elastase mediated hydrolysis of the synthetic substrate MeO-Suc-Ala-Ala-Pro-Val-pNA
T1 sequence (P08246 whole entry): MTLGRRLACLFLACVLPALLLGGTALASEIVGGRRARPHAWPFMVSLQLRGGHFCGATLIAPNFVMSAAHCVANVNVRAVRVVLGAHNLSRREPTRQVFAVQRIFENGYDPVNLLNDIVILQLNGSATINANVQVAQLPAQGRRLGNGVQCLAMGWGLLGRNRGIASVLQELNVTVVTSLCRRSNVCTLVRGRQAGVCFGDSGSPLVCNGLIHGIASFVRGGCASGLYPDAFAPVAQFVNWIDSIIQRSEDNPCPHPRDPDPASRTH

Cricetinae gen. sp. [1] = assay: Oral dose of 20 mg/Kg (30 min prior to instillation of elastase) was tested for the inhibition of elastase-induced lung hemorrhage in hamster; Not active; assay type: functional, organism-based; conditions: Cricetulus griseus
Cricetinae gen. sp. [2] = assay: Oral dose of 2.5 mg/Kg (30 min prior to instillation of elastase) was tested for the inhibition of elastase-induced lung hemorrhage in hamster; assay type: functional, Cricetulus griseus
Cricetinae gen. sp. [3] = assay: Oral dose of 20 mg/Kg (30 min prior to instillation of elastase) was tested for the inhibition of elastase-induced lung hemorrhage in hamster; assay type: functional, Cricetulus griseus
Cricetinae gen. sp. [4] = assay: Oral dose of 2.5 mg/Kg (90 min prior to instillation of elastase) was tested for the inhibition of elastase-induced lung hemorrhage in hamster; assay type: functional, Cricetulus griseus
Cricetinae gen. sp. [5] = assay: Compound at an oral dose of 20 mg/Kg (90 min prior to instillation of elastase) was tested for the inhibition of elastase-induced lung hemorrhage in hamster; assay type: functional, Cricetulus griseus
Cricetinae gen. sp. [6] = assay: Oral dose of 2.5 mg/Kg (30 min prior to instillation of elastase) was tested for the inhibition of elastase-induced lung hemorrhage in hamster; Not active; assay type: functional, organism-based; conditions: Cricetulus griseus
[7] = Selectivity ratio for bovine pancreatic chymotrypsin and HLE
[8] = Partition coefficient (logP); assay type: physicochemical; conditions: octanol/water
[9] = Solubility of compound in 0.01 M sodium phosphate buffer at pH = […]; assay type: physicochemical; conditions: pH 7.4
Cricetinae gen. sp. [10] = assay: Compound at an oral dose of 2.5 mg/Kg (90 min prior to instillation of elastase) was tested for the inhibition of elastase-induced lung hemorrhage in hamster; Not active; assay type: functional, organism-based; conditions: Cricetulus griseus
[11] = Area under the concentration vs time curve in dog at 10 mg/kg oral dose; assay type: ADME, organism-based, Canis lupus familiaris; set-up: dose 10 mg/kg, route oral; conditions: in vivo
[12] = Area under the concentration vs time curve in hamster at 10 mg/kg oral dose; assay type: ADME, organism-based; set-up: dose 10 mg/kg, route oral; conditions: cricetinae, in vivo
[13] = Area under the concentration vs time curve in rat at 10 mg/kg oral dose; assay type: ADME, organism-based; set-up: dose 10 mg/kg, route oral; conditions: in vivo
[14] = Maximum concentration in plasma recorded 0-6 hr post dose in dog at 10 mg/kg oral dose; assay type: ADME, organism-based, Canis lupus familiaris; set-up: dose 10 mg/kg, route oral
[15] = Maximum concentration in plasma recorded in the period 0-6 hr post dose in hamster at 10 mg/kg oral dose; assay type: ADME, organism-based; set-up: dose 10 mg/kg, route oral; conditions: cricetinae
[16] = Maximum concentration in plasma recorded in the period 0-6 hr post dose in rat at 10 mg/kg oral dose; assay type: ADME, organism-based; set-up: dose 10 mg/kg, route oral
[17] = Tmax is the time of maximum concentration in rat at 10 mg/kg oral dose; assay type: ADME, organism-based; set-up: dose 10 mg/kg, route oral; conditions: in vivo
[18] = Tmax is the time of maximum concentration in hamster at 10 mg/kg oral dose; assay type: ADME, organism-based; set-up: dose 10 mg/kg, route oral; conditions: cricetinae, in vivo
[19] = Tmax is the time of maximum concentration in dog at 10 mg/kg oral dose; assay type: ADME, organism-based, Canis lupus familiaris; set-up: dose 10 mg/kg, route oral; conditions: in vivo
[20] = Half life in plasma in hamster at 10 mg/kg oral dose; assay type: ADME, organism-based; set-up: dose 10 mg/kg, route oral; conditions: cricetinae
[21] = Half life in plasma in dog at 10 mg/kg oral dose; assay type: ADME, organism-based, Canis lupus familiaris; set-up: dose 10 mg/kg, route oral
[22] = Half life in plasma in rat at 10 mg/kg oral dose; assay type: ADME, organism-based; set-up: dose 10 mg/kg, route oral

Ki (Neutrophil elastase) [nM]	logP [8]	Structure (SMILES)	inhibition (Cricetinae gen. sp. [1])	inhibition in vivo at 20 mg/kg (Cricetinae gen. sp. [3]) [%]	inhibition in vivo at 2.5 mg/kg (Cricetinae gen. sp. [4]) [%]	further results
9	–	CC(C)C(NC(=O)Cn1c(-c2ccc(NC=O)cc2)ncc(NC(=O)OCc2ccccc2)c1=O)C(=O)C(F)(F)F (stereo not given)	inactive	–	–	–
18	–	CC(C)C(NC(=O)Cn1c(-c2ccc(Cl)cc2)ncc(NC(=O)OCc2ccccc2)c1=O)C(=O)C(F)(F)F (stereo not given)	inactive	–	–	Ratio [7]: 322
16	–	CSC(=O)Nc1cnc(-c2ccccc2)n(CC(=O)NC(C(=O)C(F)(F)F)C(C)C)c1=O (stereo not given)	–	–	32	inhibition in vivo at 20 mg/kg (Cricetinae gen. sp. [5]): 57%
–	2.1	CC(C)C(NC(=O)Cn1c(-c2ccccc2)ncc(NC(=O)OCc2ccccc2)c1=O)C(=O)C(F)(F)F (stereo not given)	–	54	–	–
26	–	CCNc1cnc(-c2cccs2)n(CC(=O)NC(C(=O)C(F)(F)F)C(C)C)c1=O (stereo not given)	–	52	32	–
33	1.3	CC(C)C(NC(=O)Cn1c(-c2cccnc2)ncc(NC(=O)OCc2ccccc2)c1=O)C(=O)C(F)(F)F (stereo not given)	–	59	–	solubility [9]: 580 µg/mL (≈ 1090 µM); Ratio [7]: 245
23	–	CSC(=O)Nc1cnc(-c2ccc(F)cc2)n(CC(=O)NC(C(=O)C(F)(F)F)C(C)C)c1=O (stereo not given)	–	–	50	–
100	–	CC(C)C(NC(=O)Cn1c(-c2cccs2)ncc(NC=O)c1=O)C(=O)C(F)(F)F (stereo not given)	–	–	37	inhibition in vivo at 20 mg/kg (Cricetinae gen. sp. [5]): 58%
20	–	CC(C)C(NC(=O)Cn1c(-c2cc(F)cc(F)c2)ncc(NC(=O)OCc2ccccc2)c1=O)C(=O)C(F)(F)F (stereo not given)	–	43	–	Ratio [7]: 230
42	2.3	CC(C)C(NC(=O)Cn1c(-c2ccc(C(F)(F)F)cc2)ncc(NC(=O)OCc2ccccc2)c1=O)C(=O)C(F)(F)F (stereo not given)	inactive	–	–	solubility [9]: 25 µg/mL (≈ 41.8 µM); Ratio [7]: 164
–	2.2	CC(C)C(NC(=O)Cn1c(-c2ccc(F)cc2)ncc(NC(=O)OCc2ccccc2)c1=O)C(=O)C(F)(F)F (stereo not given)	–	54	–	solubility [9]: 6.9 µg/mL (≈ 12.6 µM)

Continued, compound first:

Structure (SMILES)	Ki (Neutrophil elastase) [nM]	logP [8]	inhibition (Cricetinae gen. sp. [1])	inhibition in vivo at 20 mg/kg (Cricetinae gen. sp. [3]) [%]	inhibition in vivo at 2.5 mg/kg (Cricetinae gen. sp. [4]) [%]	further results
COC(=O)Nc1cnc(-c2ccc(F)cc2)n(CC(=O)NC(C(=O)C(F)(F)F)C(C)C)c1=O (stereo not given)	–	–	–	73	–	inhibition in vivo at 2.5 mg/kg (Cricetinae gen. sp. [2]): 39%
CC(C)C(NC(=O)Cn1c(-c2cccs2)ncc(NC(=O)OCC(F)(F)F)c1=O)C(=O)C(F)(F)F (stereo not given)	48	–	–	–	41	inhibition in vivo at 20 mg/kg (Cricetinae gen. sp. [5]): 60%
CC(C)C(NC(=O)Cn1c(-c2cccs2)ncc(N)c1=O)B1OC(C)(C)C(C)(C)O1 (stereo not given)	4.9	–	–	50	–	inhibition (Cricetinae gen. sp. [6]): inactive
CC(C)C(NC(=O)Cn1c(-c2ccccc2)ccc(NC(=O)OCc2ccccc2)c1=O)C(=O)C(F)(F)F (stereo not given)	–	> 4	inactive	–	–	–
CC(C)C(NC(=O)Cn1c(C2CCCCC2)ncc(NC(=O)OCc2ccccc2)c1=O)C(=O)C(F)(F)F (stereo not given)	57	2.9	inactive	–	–	solubility [9]: 42 µg/mL (≈ 78.3 µM)
CC(C)C(NC(=O)Cn1c(-c2ccc(F)cc2)ncc(NS(=O)(=O)C2CCCCC2)c1=O)B1OC(C)(C)C(C)(C)O1 (stereo not given)	0.21	–	–	–	–	inhibition in vivo at 2.5 mg/kg (Cricetinae gen. sp. [2]): 31%; inhibition (Cricetinae gen. sp. [10]): inactive
CC(C)C(NC(=O)Cn1c(-c2ccc(F)cc2)ncc(N)c1=O)C(=O)C(F)(F)F (stereo not given)	–	–	–	66	49	AUC [11]: 5950 ng·h/mL; AUC [12]: 1190 ng·h/mL; AUC [13]: 5170 ng·h/mL; Cmax [14]: 3230 ng/mL; Cmax [15]: 750 ng/mL; Cmax [16]: 1900 ng/mL; Tmax [17]: 1 h; Tmax [18]: 15 min; Tmax [19]: 1 h; half-life [20]: 81 min; inhibition in vivo at 2.5 mg/kg (Cricetinae gen. sp. [2]): 43%; half-life [21]: 58 min; half-life [22]: 96 min
CC(C)C(NC(=O)Cn1c(-c2ccc(NC(=O)C(F)(F)F)cc2)ncc(NC(=O)OCc2ccccc2)c1=O)C(=O)C(F)(F)F (stereo not given)	43	–	inactive	–	–	–
COC(=O)Nc1cnc(-c2ccc(F)cc2)n(CC(=O)NC(B2OC(C)(C)C(C)(C)O2)C(C)C)c1=O (stereo not given)	7.7	–	–	–	–	inhibition (Cricetinae gen. sp. [6]): inactive

Reference: ChEMBL document CHEMBL1128575, “Nonpeptidic inhibitors of human leukocyte elastase. 5. Design, synthesis, and X-ray crystallography of a series of orally active 5-aminopyrimidin-6-one-containing trifluoromethyl ketones” (J Med Chem, 1995)
